# Target: T1, active p38 alpha enzyme (Upstate Biotechnology) (Homo sapiens, UniProt Q16539)
# T1 construct: purchased Upstate Biotechnology
# Assay: p38α biochemical assay (ATP turnover, luminescent detection, Cambrex PKlight)
# Details: p38α biochemical assay, Table 1 Biological Activity
# Procedure, shortened: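 Compounds in DMSO are added to active p38 alpha with MapkapK2 whole protein and ATP at 1.4 uM final. Reactions then run for 2 hours at 30C. A luminescent reagent is added last to quantify total ATP consumed.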
# T1 sequence (Q16539 whole entry): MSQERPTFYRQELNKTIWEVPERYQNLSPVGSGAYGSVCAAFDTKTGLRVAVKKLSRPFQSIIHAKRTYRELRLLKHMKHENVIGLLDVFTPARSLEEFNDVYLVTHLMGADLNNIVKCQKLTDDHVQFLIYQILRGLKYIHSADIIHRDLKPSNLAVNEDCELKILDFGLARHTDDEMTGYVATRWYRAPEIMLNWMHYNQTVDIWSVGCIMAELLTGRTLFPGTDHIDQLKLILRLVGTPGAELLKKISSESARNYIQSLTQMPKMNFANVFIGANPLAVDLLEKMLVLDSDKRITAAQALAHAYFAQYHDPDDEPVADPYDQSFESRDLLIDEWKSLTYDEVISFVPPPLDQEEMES
row,SMILES,IC50 [µM]
1,CC(C)NC(=O)c1csc(-c2oc(CNC(=O)c3ccc(OC(C)C)cc3)nc2-c2ccc(F)cc2)n1 [Example 219],> 1
2,Cc1cccc([N+](=O)[O-])c1C(=O)NCc1nc(-c2ccc(F)cc2)c(-c2nc(C(=O)NC(C)C)cs2)o1 [Example 220],≤ 1
3,Cc1ccc([N+](=O)[O-])c(C(=O)NCc2nc(-c3ccc(F)cc3)c(-c3nc(C(=O)NC(C)C)cs3)o2)c1 [Example 222],≤ 1
4,COc1ccc(C(=O)NCc2nc(-c3ccc(F)cc3)c(-c3nc(C(=O)NC(C)C)cs3)o2)c(OC)c1 [Example 225],> 1
5,COc1cccc(OC)c1C(=O)NCc1nc(-c2ccc(F)cc2)c(-c2nc(C(=O)NC(C)C)cs2)o1 [Example 226],≤ 1
6,COc1cc(OC)cc(C(=O)NCc2nc(-c3ccc(F)cc3)c(-c3nc(C(=O)NC(C)C)cs3)o2)c1 [Example 227],> 1
7,COc1cccc(C(=O)NCc2nc(-c3ccc(F)cc3)c(-c3nc(C(=O)NC(C)C)cs3)o2)c1OC [Example 228],> 1
8,Cc1ccc(SCC(=O)NCc2nc(-c3ccc(F)cc3)c(-c3nc(C(=O)NC(C)C)cs3)o2)cc1 [Example 229],> 1
9,CC(C)NC(=O)c1csc(-c2oc(CNC(=O)/C=C/c3ccc(Cl)cc3)nc2-c2ccc(F)cc2)n1 [Example 230],≤ 1
10,CC(C)NC(=O)c1csc(-c2oc(CNC(=O)c3ccc([N+](=O)[O-])c(O)c3)nc2-c2ccc(F)cc2)n1 [Example 232],> 1
11,CC(C)NC(=O)c1csc(-c2oc(CNC(=O)c3cc([N+](=O)[O-])ccc3F)nc2-c2ccc(F)cc2)n1 [Example 235],> 1
12,CC(C)NC(=O)c1csc(-c2oc(CNC(=O)c3cc(F)ccc3[N+](=O)[O-])nc2-c2ccc(F)cc2)n1 [Example 236],≤ 1
13,COc1cc(Cl)ccc1C(=O)NCc1nc(-c2ccc(F)cc2)c(-c2nc(C(=O)NC(C)C)cs2)o1 [Example 239],> 1
14,CC(C)NC(=O)c1csc(-c2oc(CNC(=O)Cc3ccc(O)c(Cl)c3)nc2-c2ccc(F)cc2)n1 [Example 240],≤ 1
15,CC(C)NC(=O)c1csc(-c2oc(CNC(=O)c3ccc4cc(O)ccc4c3)nc2-c2ccc(F)cc2)n1 [Example 242],≤ 1
16,CC(C)NC(=O)c1csc(-c2oc(CNC(=O)c3cc4ccccc4cc3O)nc2-c2ccc(F)cc2)n1 [Example 244],> 1
17,CC(C)NC(=O)c1csc(-c2oc(CNC(=O)c3ccc4ccccc4c3O)nc2-c2ccc(F)cc2)n1 [Example 245],> 1
18,CC(C)NC(=O)c1csc(-c2oc(CNC(=O)c3ccc4cccc(O)c4n3)nc2-c2ccc(F)cc2)n1 [Example 246],≤ 1
19,CC(C)NC(=O)c1csc(-c2oc(CNC(=O)C(C)NC(=O)OC(C)(C)C)nc2-c2ccc(F)cc2)n1 (centres unmarked) [Example 247],> 1
20,CC(C)NC(=O)c1csc(-c2oc(CNC(=O)C(C)NC(=O)OC(C)(C)C)nc2-c2ccc(F)cc2)n1 (centres unmarked) [Example 248],> 1
21,CC(C)NC(=O)c1csc(-c2oc(CNC(=O)c3ccccc3C(F)(F)F)nc2-c2ccc(F)cc2)n1 [Example 249],≤ 1
22,CC(C)NC(=O)c1csc(-c2oc(CNC(=O)c3cccc(Cl)c3Cl)nc2-c2ccc(F)cc2)n1 [Example 251],≤ 1
23,CC(C)NC(=O)c1csc(-c2oc(CNC(=O)c3ccc(Cl)cc3Cl)nc2-c2ccc(F)cc2)n1 [Example 252],≤ 1
24,CC(C)NC(=O)c1csc(-c2oc(CNC(=O)c3cc(Cl)ccc3Cl)nc2-c2ccc(F)cc2)n1 [Example 253],≤ 1
25,CCCCCc1ccc(C(=O)NCc2nc(-c3ccc(F)cc3)c(-c3nc(C(=O)NC(C)C)cs3)o2)cc1 [Example 257],> 1
26,CC(C)NC(=O)c1csc(-c2oc(CNC(=O)c3cc(F)c(F)cc3Cl)nc2-c2ccc(F)cc2)n1 [Example 258],≤ 1
27,CC(C)NC(=O)c1csc(-c2oc(CNC(=O)c3cc4cc(Cl)ccc4o3)nc2-c2ccc(F)cc2)n1 [Example 264],≤ 1
28,COc1ccc([N+](=O)[O-])c(C(=O)NCc2nc(-c3ccc(F)cc3)c(-c3nc(C(=O)NC(C)C)cs3)o2)c1 [Example 265],≤ 1
29,CC(C)NC(=O)c1csc(-c2oc(CNC(=O)c3ccccc3-c3ccccc3)nc2-c2ccc(F)cc2)n1 [Example 267],> 1
30,CC(C)NC(=O)c1csc(-c2oc(CNC(=O)c3cccc(Br)c3)nc2-c2ccc(F)cc2)n1 [Example 268],> 1

# The remaining lines, values ahead:
row,IC50 [µM],SMILES
1,≤ 1,Cc1cccc(C(=O)NCc2nc(-c3ccc(F)cc3)c(-c3nc(C(=O)NC(C)C)cs3)o2)c1[N+](=O)[O-] [Example 221]
2,> 1,Cc1c(C(=O)NCc2nc(-c3ccc(F)cc3)c(-c3nc(C(=O)NC(C)C)cs3)o2)cccc1[N+](=O)[O-] [Example 223]
3,> 1,COc1ccc(OC)c(C(=O)NCc2nc(-c3ccc(F)cc3)c(-c3nc(C(=O)NC(C)C)cs3)o2)c1 [Example 224]
4,> 1,CC(C)NC(=O)c1csc(-c2oc(CNC(=O)/C=C/c3ccccc3Cl)nc2-c2ccc(F)cc2)n1 [Example 231]
5,≤ 1,CC(C)NC(=O)c1csc(-c2oc(CNC(=O)c3cc(O)ccc3[N+](=O)[O-])nc2-c2ccc(F)cc2)n1 [Example 233]
6,≤ 1,CC(C)NC(=O)c1csc(-c2oc(CNC(=O)c3cc([N+](=O)[O-])ccc3O)nc2-c2ccc(F)cc2)n1 [Example 234]
7,≤ 1,CC(C)NC(=O)c1csc(-c2oc(CNC(=O)c3ccc(F)c([N+](=O)[O-])c3)nc2-c2ccc(F)cc2)n1 [Example 237]
8,> 1,COc1ccc(Cl)cc1C(=O)NCc1nc(-c2ccc(F)cc2)c(-c2nc(C(=O)NC(C)C)cs2)o1 [Example 238]
9,> 1,COc1cc(C(=O)NCc2nc(-c3ccc(F)cc3)c(-c3nc(C(=O)NC(C)C)cs3)o2)cc(Cl)n1 [Example 241]
10,> 1,CC(C)NC(=O)c1csc(-c2oc(CNC(=O)c3c(O)ccc4ccccc34)nc2-c2ccc(F)cc2)n1 [Example 243]
11,≤ 1,CC(C)NC(=O)c1csc(-c2oc(CNC(=O)CCc3nc4ccccc4[nH]3)nc2-c2ccc(F)cc2)n1 [Example 250]
12,> 1,CC(C)NC(=O)c1csc(-c2oc(CNC(=O)c3cc(F)c(F)c(O)c3F)nc2-c2ccc(F)cc2)n1 [Example 254]
13,> 1,CC(C)NC(=O)c1csc(-c2oc(CNC(=O)/C=C/c3ccc4c(c3)OCO4)nc2-c2ccc(F)cc2)n1 [Example 255]
14,> 1,Cc1ccc(C(=O)CCC(=O)NCc2nc(-c3ccc(F)cc3)c(-c3nc(C(=O)NC(C)C)cs3)o2)cc1 [Example 256]
15,> 1,CC(C)NC(=O)c1csc(-c2oc(CNC(=O)c3cc(F)c(Cl)cc3F)nc2-c2ccc(F)cc2)n1 [Example 259]
16,≤ 1,CCN(CC)c1ccc(C(=O)NCc2nc(-c3ccc(F)cc3)c(-c3nc(C(=O)NC(C)C)cs3)o2)cc1 [Example 260]
17,≤ 1,COc1cc(/C=C/C(=O)NCc2nc(-c3ccc(F)cc3)c(-c3nc(C(=O)NC(C)C)cs3)o2)ccc1O [Example 261]
18,≤ 1,COc1ccc(/C=C/C(=O)NCc2nc(-c3ccc(F)cc3)c(-c3nc(C(=O)NC(C)C)cs3)o2)cc1O [Example 262]
19,> 1,CCCCOc1ccc(C(=O)NCc2nc(-c3ccc(F)cc3)c(-c3nc(C(=O)NC(C)C)cs3)o2)cc1 [Example 263]
20,≤ 1,COc1cc(C(=O)NCc2nc(-c3ccc(F)cc3)c(-c3nc(C(=O)NC(C)C)cs3)o2)cc(OC)c1O [Example 266]

# — patent US20060252807A1, “Novel ortho-terphenyl inhibitors of p38 kinase and methods of treating inflammatory disorders” (Kalypsys, Inc., priority 2005, published 2006)
